How the values were obtained:
barnyardgrass [1] = test: Test A pre-/postemergence greenhouse test; type: in vivo, Echinochloa crus-galli; settings: for Plant response rating, Barnyardgrass: 0 to 100 scale where 0 is no effect and 100 is complete control; for Barnyardgrass plant response rating: 0 to 100 scale
Outline: (§1)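 Visual injury ratings, made relative to untreated controls roughly ten days after treatment, cover both preemergence and postemergence application. Compounds in a surfactant-containing non-phytotoxic solvent were sprayed onto the soil surface after sowing and, simultaneously, onto young plants at the one- to two-leaf stage.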

crabgrass = test: Test A pre-/postemergence greenhouse test; type: in vivo, Digitaria sanguinalis; settings: for Plant response rating, Crabgrass, Large: 0 to 100 scale where 0 is no effect and 100 is complete control; for Crabgrass, Large plant response rating: 0 to 100 scale
Outline: as §1

giant foxtail = test: Test A pre-/postemergence greenhouse test; type: in vivo, Setaria faberi; settings: for Plant response rating, Foxtail, Giant: 0 to 100 scale where 0 is no effect and 100 is complete control; for Foxtail, Giant plant response rating: 0 to 100 scale
Outline: as §1

morningglory = test: Test A pre-/postemergence greenhouse test; type: in vivo, Ipomoea spp.; settings: for Plant response rating, Morningglory: 0 to 100 scale where 0 is no effect and 100 is complete control; for Morningglory plant response rating: 0 to 100 scale
Outline: as §1

redroot pigweed = test: Test A pre-/postemergence greenhouse test; type: in vivo, Amaranthus retroflexus; settings: for Plant response rating, Pigweed: 0 to 100 scale where 0 is no effect and 100 is complete control; for Pigweed plant response rating: 0 to 100 scale
Outline: as §1

velvetleaf = test: Test A pre-/postemergence greenhouse test; type: in vivo, Abutilon theophrasti; settings: for Plant response rating, Velvetleaf: 0 to 100 scale where 0 is no effect and 100 is complete control; for Velvetleaf plant response rating: 0 to 100 scale
Outline: as §1

wheat = test: Test A pre-/postemergence greenhouse test; type: in vivo, Triticum aestivum; settings: for Plant response rating, Wheat: 0 to 100 scale where 0 is no effect and 100 is complete control; for Wheat plant response rating: 0 to 100 scale
Outline: as §1

corn = test: Test A pre-/postemergence greenhouse test; type: in vivo, Zea mays; settings: for Plant response rating, Corn: 0 to 100 scale where 0 is no effect and 100 is complete control; for Corn plant response rating: 0 to 100 scale
Outline: as §1

rice = test: Test C flooded paddy test; type: in vivo, Oryza sativa; settings: Flood
Text: (§2) At time of treatment, test pots were flooded to 3 cm above the soil surface, treated by application of test compounds directly to the paddy water, and then maintained at that water depth for the duration of the test. Treated plants and controls were maintained in a greenhouse for 13 to 15 days, after which time all species were compared to controls and visually evaluated. […] A dash (-) response means no test result.

umbrella sedge = test: Test C flooded paddy test; type: in vivo, Cyperus difformis; settings: Flood
Text: as §2

duck salad = test: Test C flooded paddy test; type: in vivo, Heteranthera limosa; settings: Flood
Text: as §2

barnyardgrass [2] = test: Test C flooded paddy test; type: in vivo, Echinochloa crus-galli; settings: Flood
Text: as §2

[3] = Postemergence, 500 g ai/ha, 0 is no effect, 100 is complete control
[4] = Preemergence, 125 g ai/ha, 0 no effect, 100 complete control
[5] = 31 g ai/ha, scale 0 to 100 (0 no effect, 100 complete control)
[6] = 62 g ai/ha, scale 0 to 100, 0 no effect, 100 complete control, 13 to 15 days
[7] = 125 g ai/ha, scale 0 to 100, 0 no effect, 100 complete control, 13 to 15 days
[8] = 250 g ai/ha, scale 0 to 100, 0 no effect, 100 complete control, 13 to 15 days

CC(c1c(C(F)(F)F)nn(CC(F)(F)F)c1Cl)S(=O)(=O)c1ccc(Cl)c[n+]1[O-] (stereo not shown) [Compound 55]
Plant response rating, Barnyardgrass (barnyardgrass [1]; Postemergence, 125 g ai/ha): 40
Barnyardgrass plant response rating (barnyardgrass [1]; [3]): 80
Barnyardgrass plant response rating (barnyardgrass [1]; [4]): 30
Plant response rating, Barnyardgrass (barnyardgrass [1]; Preemergence, 500 g ai/ha): 100
Plant response rating, Crabgrass, Large (crabgrass; Postemergence, 125 g ai/ha): 50
Crabgrass, Large plant response rating (crabgrass; [3]): 80
Crabgrass, Large plant response rating (crabgrass; [4]): 80
Plant response rating, Crabgrass, Large (crabgrass; Preemergence, 500 g ai/ha): 90
Plant response rating, Foxtail, Giant (giant foxtail; Postemergence, 125 g ai/ha): 70
Foxtail, Giant plant response rating (giant foxtail; [3]): 80
Foxtail, Giant plant response rating (giant foxtail; [4]): 60
Plant response rating, Foxtail, Giant (giant foxtail; Preemergence, 500 g ai/ha): 90
Plant response rating, Morningglory (morningglory; Postemergence, 125 g ai/ha): 0
Morningglory plant response rating (morningglory; [3]): 50
Morningglory plant response rating (morningglory; [4]): 0
Plant response rating, Morningglory (morningglory; Preemergence, 500 g ai/ha): 50
Plant response rating, Pigweed (redroot pigweed; Postemergence, 125 g ai/ha): 0
Pigweed plant response rating (redroot pigweed; [3]): 30
Pigweed plant response rating (redroot pigweed; [4]): 90
Plant response rating, Pigweed (redroot pigweed; Preemergence, 500 g ai/ha): 100
Plant response rating, Velvetleaf (velvetleaf; Postemergence, 125 g ai/ha): 0
Velvetleaf plant response rating (velvetleaf; [3]): 30
Velvetleaf plant response rating (velvetleaf; [4]): 0
Plant response rating, Velvetleaf (velvetleaf; Preemergence, 500 g ai/ha): 0
Plant response rating, Wheat (wheat; Postemergence, 125 g ai/ha): 0
Wheat plant response rating (wheat; [3]): 0
Wheat plant response rating (wheat; [4]): 0
Plant response rating, Wheat (wheat; Preemergence, 500 g ai/ha): 0
Plant response rating, Corn (corn; Postemergence, 125 g ai/ha): 0
Corn plant response rating (corn; [3]): 0
Corn plant response rating (corn; [4]): 0
Plant response rating, Corn (corn; Preemergence, 500 g ai/ha): 0
Plant response rating, Rice (rice; [5]): 0
Plant response rating, Rice (rice; [6]): 0
Plant response rating, Rice (rice; [7]): 0
Plant response rating, Rice (rice; [8]): 20
Plant response rating, Sedge, Umbrella (umbrella sedge; [5]): 0
Plant response rating, Sedge, Umbrella (umbrella sedge; [7]): 65
Plant response rating, Sedge, Umbrella (umbrella sedge; [8]): 75
Plant response rating, Ducksalad (duck salad; [5]): 0
Plant response rating, Ducksalad (duck salad; [6]): 40
Plant response rating, Ducksalad (duck salad; [7]): 60
Plant response rating, Ducksalad (duck salad; [8]): 60
Plant response rating, Barnyardgrass (barnyardgrass [2]; [5]): 0
Plant response rating, Barnyardgrass (barnyardgrass [2]; [6]): 0
Plant response rating, Barnyardgrass (barnyardgrass [2]; [7]): 0
Plant response rating, Barnyardgrass (barnyardgrass [2]; [8]): 0

Cn1nc(C(F)(F)F)c(CS(=O)(=O)c2ccc(F)c[n+]2[O-])c1Cl [Compound 53]
Plant response rating, Barnyardgrass (barnyardgrass [1]; Postemergence, 125 g ai/ha): 60
Barnyardgrass plant response rating (barnyardgrass [1]; [3]): 80
Barnyardgrass plant response rating (barnyardgrass [1]; [4]): 50
Plant response rating, Barnyardgrass (barnyardgrass [1]; Preemergence, 500 g ai/ha): 80
Plant response rating, Crabgrass, Large (crabgrass; Postemergence, 125 g ai/ha): 40
Crabgrass, Large plant response rating (crabgrass; [3]): 80
Crabgrass, Large plant response rating (crabgrass; [4]): 60
Plant response rating, Crabgrass, Large (crabgrass; Preemergence, 500 g ai/ha): 90
Plant response rating, Foxtail, Giant (giant foxtail; Postemergence, 125 g ai/ha): 80
Foxtail, Giant plant response rating (giant foxtail; [3]): 90
Foxtail, Giant plant response rating (giant foxtail; [4]): 60
Plant response rating, Foxtail, Giant (giant foxtail; Preemergence, 500 g ai/ha): 80
Plant response rating, Morningglory (morningglory; Postemergence, 125 g ai/ha): 20
Morningglory plant response rating (morningglory; [3]): 30
Morningglory plant response rating (morningglory; [4]): 30
Plant response rating, Morningglory (morningglory; Preemergence, 500 g ai/ha): 70
Plant response rating, Pigweed (redroot pigweed; Postemergence, 125 g ai/ha): 20
Pigweed plant response rating (redroot pigweed; [3]): 50
Pigweed plant response rating (redroot pigweed; [4]): 100
Plant response rating, Pigweed (redroot pigweed; Preemergence, 500 g ai/ha): 100
Plant response rating, Velvetleaf (velvetleaf; Postemergence, 125 g ai/ha): 0
Velvetleaf plant response rating (velvetleaf; [3]): 0
Velvetleaf plant response rating (velvetleaf; [4]): 0
Plant response rating, Velvetleaf (velvetleaf; Preemergence, 500 g ai/ha): 0
Plant response rating, Wheat (wheat; Postemergence, 125 g ai/ha): 0
Wheat plant response rating (wheat; [3]): 0
Wheat plant response rating (wheat; [4]): 0
Plant response rating, Wheat (wheat; Preemergence, 500 g ai/ha): 0
Plant response rating, Corn (corn; Postemergence, 125 g ai/ha): 0
Corn plant response rating (corn; [3]): 0
Corn plant response rating (corn; [4]): 0
Plant response rating, Corn (corn; Preemergence, 500 g ai/ha): 0
Plant response rating, Rice (rice; [5]): 0
Plant response rating, Rice (rice; [6]): 25
Plant response rating, Rice (rice; [7]): 60
Plant response rating, Rice (rice; [8]): 75
Plant response rating, Sedge, Umbrella (umbrella sedge; [5]): 20
Plant response rating, Sedge, Umbrella (umbrella sedge; [7]): 80
Plant response rating, Sedge, Umbrella (umbrella sedge; [8]): 90
Plant response rating, Ducksalad (duck salad; [5]): 20
Plant response rating, Ducksalad (duck salad; [6]): 60
Plant response rating, Ducksalad (duck salad; [7]): 100
Plant response rating, Ducksalad (duck salad; [8]): 100
Plant response rating, Barnyardgrass (barnyardgrass [2]; [5]): 0
Plant response rating, Barnyardgrass (barnyardgrass [2]; [6]): 0
Plant response rating, Barnyardgrass (barnyardgrass [2]; [7]): 60
Plant response rating, Barnyardgrass (barnyardgrass [2]; [8]): 80

Source: patent US20100298141A1, “SUBSTITUTED PYRIDINE N-OXIDE HERBICIDES” (E. I. DU PONT DE NEMOURS AND COMPANY, priority 2007, published 2010)
